According to patent US8183292B2, “Chiral cyclic β-amino acids and their derivatives, pharmaceutical compositions containing them and the use of such compounds” (BioBlocks Magyarorszag Gyogyszerkemiai es Fejleszto Kft., priority 2006, dated 2012):

Assays:
P-glycoprotein = test: Reversal of multidrug resistance: rhodamine 123 accumulation in human mdr1 transfected L5178 mouse T-cell lymphoma cells (flow cytometry); format: cell-based; conditions: for Vrel = effect related to Verapamil: Verapamil at 10 μg/ml; for R (activity ratio, fluorescence) / R = ratio of fluorescence and activity: rhodamine 123; for Multidrug resistance reversing effect (in words): 4 and 40 μg/mL, at higher concentration multiple of fluorescence activity of Verapamil; for R: Table 4 concentration series; for Multidrug resistance reversing effect at lower concentrations (in words): lower concentration (4 μg/mL), similar values at higher concentration, indicating saturation
Procedure: L5178 mouse T-cell lymphoma cells were transfected with pHa MDR1/A retrovirus, by the method as described by J. L. Weaver [J. L. Weaver, G. Szabó, P. S. Pine, M. M. Gottesmann, S. Goldenberg and A. Aszalos: The effect of ion channel blockers, immunosuppressive agents and other drugs on the activity of the multidrug transporter. Int. […] Mdr-1-expressing cell lines were selected by culturing the transfected cells with 60 ng/mL of colchicine to maintain the expression of the MDR phenotype. L5178 (parent) mouse T-cell lymphoma cells and the human mdr1 transfected subline were cultured in McCoy's 5A medium supplemented with 10% by mass of heath-inactivated horce serum, L-glutamine and antibiotics. Both cell lines were cultured at 37° C. The mouse lymphoma cell line was maintained in a 5% CO2 atmosphere.
The assays were carried out by the method as described by J. Molnár et al. [J. Molnár, I. Mucsi, J. Nacsa, A. Hevér, N. Gyémánt, K. Ugocsai, P. Hegyes, S. Kiessig, D. Gaal, H. Lage and A. Varga: New silicon compounds as resistance modifiers against multidrug-resistant cells. […] The cell density was set to a value of 2×10^6/mL, then the cells were resuspended in a serum-free McCoy's 5A medium and divided in aliquots of 0.5 mL in Eppendorf centrifuge tubes. The tested compounds were added in different concentrations to different volumes (2.0-20.0 μL) of 1.0-10.0 mg/mL stock solutions and the samples were incubated for 10 minutes at room temperature. […] The fluorescence of the cell population was measured with a Beckton Dickinson FACScan flow cytometer. […] The percentage value of the mean fluorescence intensity was calculated for the treated MDR and for the parental cell lines as compared with the values obtained with the untreated cells. The activity ratio (R) was calculated on the basis of the measured fluorescence values by the following equation: […]

[1] = system: MRC-5 human fibroblast cell lines; test: Cytotoxicity on MRC-5 human fibroblast cell lines (Alamar Blue/resazurine, 24 h); format: cell-based; conditions: MRC-5 cells, 24 hours incubation, 1% DMSO
Procedure: The toxic effect of the compounds was measured on MRC-5 human fibroblast cell lines in accordance with the method that has been described in the article published by Molnár et al. [L. Molnár, G. M. Keserü, Á. Papp, Z. Lörincz, G. Ambrus és F. Darvas.: A neural network based classification scheme for cytotoxicity predictions: Validation on 30,000 compounds, Bioorg. Med. Chem. Lett. 16(4), 1037-9 (2006)]. The cells were incubated for a cell cycle (24 hours) with solutions of various concentrations prepared from the compounds, in the presence of 1% of DMSO. 3 parallel measurements were carried out with 6 different concentrations. The ratio of the viable cells was determined by reducing the Alamaar Blue (resazurine) reagent that was followed fluorimetrically. The measured materials were not toxic on the given cell line in a concentration of 128 μmol after incubation for one day.
In the following Table 1 the cytotoxicity of some compounds according to the invention is given.

Structure (SMILES) | Vrel = effect related to Verapamil (P-glycoprotein; Table 2, 4 μg/ml) | R (activity ratio, fluorescence) (P-glycoprotein; Table 2, 4 μg/ml) | Vrel = effect related to Verapamil (P-glycoprotein; Table 2, 40 μg/ml) | R (activity ratio, fluorescence) (P-glycoprotein; Table 2, 40 μg/ml) | Survival (%) [c = 128 μM] [1] [%] | melting point [°C] | Multidrug resistance reversing effect (in words) (P-glycoprotein) | Effect in concentration series (in words) (P-glycoprotein; 0.04, 0.08, 0.4, 0.8 and 4 μg/mL) | Vrel = effect related to Verapamil (P-glycoprotein; Table 3, 4 μg/ml) | R = ratio of fluorescence and activity (P-glycoprotein; Table 3, 4 μg/ml) | Vrel = effect related to Verapamil (P-glycoprotein; Table 3, 40 μg/ml) | R = ratio of fluorescence and activity (P-glycoprotein; Table 3, 40 μg/ml) | R (P-glycoprotein; 0.04 μg/ml) | R (P-glycoprotein; 0.08 μg/ml) | R (P-glycoprotein; 0.4 μg/ml) | R (P-glycoprotein; 0.8 μg/ml) | R (P-glycoprotein; 4 μg/ml) | Concentration sufficient for a significant P-glycoprotein-inhibiting effect (P-glycoprotein; concentration series 0.04-4 μg/mL) [µg/mL] | Multidrug resistance reversing effect at lower concentrations (in words) (P-glycoprotein)
CCOC(=O)[C@H]1C[C@H]2C[C@@H]([C@H]1NC(=O)Nc1ccc(Cl)cc1)C2(C)C [Compound 45, (1R,2R,3S,5R)-1-(3-Ethoxycarbonyl-6,6-Dimethylbicyclo[3.1.1]Heptan-2-yl) -3-(4-Chlorophenyl)-Urea] | 1.52 | 7.46 | 2.21 | 10.89 | 176.7 | 170 to 171 |  |  |  |  |  |  |  |  |  |  |  |  | 
CCOC(=O)[C@H]1C[C@H]2C[C@@H]([C@H]1NC(=S)Nc1cccc(OC)c1)C2(C)C [Compound 44, (1R,2R,3S,5R)-1-(3-Ethoxycarbonyl-6,6-Dimethylbicyclo[3.1.1]Heptan-2-yl)-3-(3-Methoxyphenyl)-Thiourea] | 0.41 | 2.02 | 4.47 | 22 | 128.1 | 132 to 135 | significant dose-dependent effect |  |  |  |  |  |  |  |  |  |  |  | 
CCOC(=O)[C@H]1C[C@H]2C[C@@H]([C@H]1NC(=S)NCCc1ccc(OC)c(OC)c1)C2(C)C [Compound 46, (1R,2R,3S,5R)-1-(3-Ethoxycarbonyl-6,6-Dimethylbicyclo[3.1.1]Heptan-2-yl) -3-(3,4-Dimethoxyphenylethyl)-Thiourea] | 0.82 | 4.02 | 4.46 | 21.92 | 182.2 | 125 to 126 | significant dose-dependent effect |  |  |  |  |  |  |  |  |  |  |  | 
CCOC(=O)[C@H]1C[C@H]2C[C@@H]([C@H]1N(Cc1ccccc1)C(=S)Nc1cccc(OC)c1)C2(C)C [Compound 47, (1R,2R,3S,5R)-1-Benzyl-1-(3-Ethoxycarbonyl-6,6-Dimethylbicyclo[3.1.1]Heptan-2-yl)-3-(3-Methoxyphenyl)-Thiourea] |  |  |  |  | 97.7 | 109 to 112 | significant dose-dependent effect | Dose-dependence was observed | 3.02 | 34.76 | 3.07 | 35.35 | 1.44 | 1.60 | 6.03 | 7.16 | 35.20 | 0.4 | considerable multidrug resistance reversing effect
CCOC(=O)[C@@H]1C[C@H]2C[C@@H]([C@H]1N(Cc1ccccc1)C(=S)Nc1cccc(OC)c1)C2(C)C [Compound 52, (1R,2R,3R,5R)-1-Benzyl-1-(3-Ethoxycarbonyl-6,6-Dimethylbicyclo[3.1.1]-Heptan-2-yl)-3-(3-Methoxyphenyl)-Thiourea] |  |  |  |  | 113.0 | 110 to 111 |  |  | 1.90 | 21.87 | 2.13 | 24.44 |  |  |  |  |  |  | considerable multidrug resistance reversing effect
